Laboratory results: US20190367516A1 (Bayer Pharma Aktiengesellschaft, priority 2015, published 2019)

How the values were obtained:
human M2 receptor [1] = target: T1, human M2 receptor (Homo sapiens, UniProt P08172); format: cell-based; details: shift in the acetylcholine dose-response curve (Allosteric EC50 shift, GraphPad PRISM); α >1 = positive cooperativity
T1 sequence (P08172 1-466): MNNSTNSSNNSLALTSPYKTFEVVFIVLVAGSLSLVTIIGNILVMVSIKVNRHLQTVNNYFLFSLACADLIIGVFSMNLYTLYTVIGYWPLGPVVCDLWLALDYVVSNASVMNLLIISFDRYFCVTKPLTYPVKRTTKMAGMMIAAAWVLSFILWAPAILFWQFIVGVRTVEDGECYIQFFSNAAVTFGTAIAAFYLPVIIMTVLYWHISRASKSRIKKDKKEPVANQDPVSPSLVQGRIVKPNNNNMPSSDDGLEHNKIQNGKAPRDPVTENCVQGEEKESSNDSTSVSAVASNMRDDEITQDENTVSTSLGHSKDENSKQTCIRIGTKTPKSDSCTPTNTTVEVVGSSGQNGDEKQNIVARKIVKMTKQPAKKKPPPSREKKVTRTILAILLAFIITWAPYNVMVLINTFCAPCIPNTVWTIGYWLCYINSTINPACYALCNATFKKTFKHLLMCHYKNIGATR
Procedure: B-1.2. Determination of Positive Cooperativity (α Factor)
In contrast to the EC50 determination of the test substances (see B-1.1), however, this is not done using one acetylcholine concentration; instead, every concentration of the test substance is combined with an acetylcholine 8-point dose-response curve. […] The shift in the acetylcholine dose-response curve in the presence of increasing concentrations of the test substance is analysed and quantified by means of GraphPad PRISM (Allosteric EC50 shift). […] Positive cooperativity is the hallmark of a positive allosteric modulator. […] The greater the magnitude of the α value, the greater the extent of cooperativity between orthosteric and allosteric.

human M2 receptor [2] = target: T1, human M2 receptor; details: Receptor activity EC50, M2-GIRK1/4 activation test, acetylcholine at EC20; allosteric potency; in some cases mean values from two or more determinations

SMILES	Cooperativity (alpha factor) (human M2 receptor [1])	EC50 (human M2 receptor [2]) [nM]
CC[C@@H](NC(=O)c1cn(-c2ccc(F)cc2F)c2nc(N3CCC(C)(OC)C3)ccc2c1=O)C(F)(F)F (mixture of isomers) [Example 191, 1-(2,4-Difluorophenyl)-7-[3-methoxy-3-methylpyrrolidin-1-yl]-4-oxo-N-[(2R)-1,1,1-trifluorobutan-2-yl]-1,4-dihydro-1,8-naphthyridine-3-carboxamide]	7	60
O=C(NC(c1cccc(F)c1)C(F)(F)F)c1cn(-c2ccc(F)cc2F)c2nc(N3C[C@@H](O)CC3=O)ccc2c1=O (mixture of isomers) [Example 272, 1-(2,4-Difluorophenyl)-7-[(4S)-4-hydroxy-2-oxopyrrolidin-1-yl]-4-oxo-N-[2,2,2-trifluoro-1-(3-fluorophenyl)ethyl]-1,4-dihydro-1,8-naphthyridine-3-carboxamide]	55	33
O=C(NC(C1CC1)C(F)(F)F)c1cn(-c2ccccc2Cl)c2nc(N3C[C@@H](O)CC3=O)ccc2c1=O (mixture of isomers) [Example 279, 1-(2-Chlorophenyl)-N-[1-cyclopropyl-2,2,2-trifluoroethyl]-7-[(4S)-4-hydroxy-2-oxopyrrolidin-1-yl]-4-oxo-1,4-dihydro-1,8-naphthyridine-3-carboxamide]	34	66
CC1(F)CCN(c2ccc3c(=O)c(C(=O)NC45CC6CC(CC(C6)C4)C5)cn(-c4ccc(F)cc4F)c3n2)C1 (racemic) [Example 9, rac-1-(2,4-Difluorophenyl)-7-(3-fluoro-3-methylpyrrolidin-1-yl)-4-oxo-N-(tricyclo[3.3.1.1^3,7]dec-1-yl)-1,4-dihydro-1,8-naphthyridine-3-carboxamide]	11	40
CCC(NC(=O)c1cn(-c2ccc(F)cc2F)c2nc(N3CCN(C(=O)OC)CC3)ccc2c1=O)C(F)(F)F (racemic) [Example 23, rac-Methyl 4-{8-(2,4-difluorophenyl)-5-oxo-6-[(1,1,1-trifluorobutan-2-yl)carbamoyl]-5,8-dihydro-1,8-naphthyridin-2-yl}piperazine-1-carboxylate]	20	96
CN(C)c1ccc2c(=O)c(C(=O)NC(c3c(Cl)cccc3Cl)C(F)(F)F)cn(-c3ccc(F)cc3F)c2n1 (racemic) [Example 56, rac-N-[1-(2,6-Dichlorophenyl)-2,2,2-trifluoroethyl]-1-(2,4-difluorophenyl)-7-(dimethylamino)-4-oxo-1,4-dihydro-1,8-naphthyridine-3-carboxamide]	15	56
CCC(NC(=O)c1cn(-c2ccc(F)cc2F)c2nc(NCCF)ccc2c1=O)C(F)(F)F (racemic) [Example 85, rac-1-(2,4-Difluorophenyl)-7-[(2-fluoroethyl)amino]-4-oxo-N-[1,1,1-trifluorobutan-2-yl]-1,4-dihydro-1,8-naphthyridine-3-carboxamide]	26	118
CCC(NC(=O)c1cn(-c2ccc(F)cc2F)c2nc(N(C)CCF)ccc2c1=O)C(F)(F)F (racemic) [Example 104, rac-1-(2,4-Difluorophenyl)-7-[(2-fluoroethyl)(methyl)amino]-4-oxo-N-[1,1,1-trifluorobutan-2-yl]-1,4-dihydro-1,8-naphthyridine-3-carboxamide]	15	28
CC(C)CC(NC(=O)c1cn(-c2ccc(F)cc2F)c2nc(N(C)CCF)ccc2c1=O)C(F)(F)F (racemic) [Example 107, rac-1-(2,4-Difluorophenyl)-7-[(2-fluoroethyl)(methyl)amino]-4-oxo-N-[1,1,1-trifluoro-4-methylpentan-2-yl]-1,4-dihydro-1,8-naphthyridine-3-carboxamide]	14	57
CC(NC(=O)c1cn(-c2ccc(F)cc2F)c2nc(NCC(F)F)ccc2c1=O)C(F)(F)F (racemic) [Example 121, rac-7-[(2,2-Difluoroethyl)amino]-1-(2,4-difluorophenyl)-4-oxo-N-[1,1,1-trifluoropropan-2-yl]-1,4-dihydro-1,8-naphthyridine-3-carboxamide]	8	295
CC[C@@H](NC(=O)c1cn(-c2ccc(F)cc2F)c2nc(N3CCC(C)(O)C3=O)ccc2c1=O)C(F)(F)F (mixture of isomers) [Example 194, 1-(2,4-Difluorophenyl)-7-[3-hydroxy-3-methyl-2-oxopyrrolidin-1-yl]-4-oxo-N-[(2R)-1,1,1-trifluorobutan-2-yl]-1,4-dihydro-1,8-naphthyridine-3-carboxamide]	16	140
CC[C@@H](NC(=O)c1cn(-c2ccc(F)cc2F)c2nc(N3CCC(C)(OC)C3=O)ccc2c1=O)C(F)(F)F (mixture of isomers) [Example 197, 1-(2,4-Difluorophenyl)-7-[3-methoxy-3-methyl-2-oxopyrrolidin-1-yl]-4-oxo-N-[(2R)-1,1,1-trifluorobutan-2-yl]-1,4-dihydro-1,8-naphthyridine-3-carboxamide]	10	120
CCC(NC(=O)c1cn(-c2ccccc2F)c2nc(N(C)C)ccc2c1=O)C(F)(F)F (racemic) [Example 204, rac-7-(Dimethylamino)-1-(2-fluorophenyl)-4-oxo-N-[1,1,1-trifluorobutan-2-yl]-1,4-dihydro-1,8-naphthyridine-3-carboxamide]	8	34
O=C(NC(c1ccccc1Cl)C(F)(F)F)c1cn(-c2ccc(F)cc2F)c2nc(N3CCCC(O)C3=O)ccc2c1=O (racemic) [Example 206, rac-N-[(1R)-(2-Chlorophenyl)-2,2,2-trifluoroethyl]-1-(2,4-difluorophenyl)-7-[3-hydroxy-2-oxopiperidin-1-yl]-4-oxo-1,4-dihydro-1,8-naphthyridine-3-carboxamide]	14	107
O=C(NC(c1ccccc1Cl)C(F)(F)F)c1cn(-c2ccc(F)cc2F)c2nc(N3C[C@@H](O)CC3=O)ccc2c1=O (mixture of isomers) [Example 211, N-[1-(2-Chlorophenyl)-2,2,2-trifluoroethyl]-1-(2,4-difluorophenyl)-7-[(4S)-4-hydroxy-2-oxopyrrolidin-1-yl]-4-oxo-1,4-dihydro-1,8-naphthyridine-3-carboxamide]	35	21
CC(NC(=O)c1cn(-c2ccc(F)cc2F)c2nc(N3C[C@@H](O)CC3=O)ccc2c1=O)c1c(F)cccc1F (mixture of isomers) [Example 214, 1-(2,4-Difluorophenyl)-N-[1-(2,6-difluorophenyl)ethyl]-7-[(4S)-4-hydroxy-2-oxopyrrolidin-1-yl]-4-oxo-1,4-dihydro-1,8-naphthyridine-3-carboxamide]	43	107
CC[C@@H](NC(=O)c1cn(-c2ccc(F)cc2F)c2nc(N3CC4CNC(=O)C4C3)ccc2c1=O)C(F)(F)F (mixture of isomers) [Example 221, 1-(2,4-Difluorophenyl)-4-oxo-7-[4-oxohexahydrpyrrolo[3,4-c]pyrrol-2(1H)-yl]-N-[(2R)-1,1,1-trifluorobutan-2-yl]-1,4-dihydro-1,8-naphthyridine-3-carboxamide]	24	106
CC[C@@H](NC(=O)c1cn(-c2ccc(F)cc2F)c2nc(N3CCC(O)C3=O)ccc2c1=O)C(F)(F)F (mixture of isomers) [Example 224, 1-(2,4-Difluorophenyl)-7-[3-hydroxy-2-oxopyrrolidin-1-yl]-4-oxo-N-[(2R)-1,1,1-trifluorobutan-2-yl]-1,4-dihydro-1,8-naphthyridine-3-carboxamide]	31	157
CC(COC(F)(F)F)NC(=O)c1cn(-c2ccc(F)cc2F)c2nc(N3CC[C@H](F)C3)ccc2c1=O (mixture of isomers) [Example 227, 1-(2,4-Difluorophenyl)-7-[(3S)-3-fluoropyrrolidin-1-yl]-4-oxo-N-[1-(trifluoromethoxy)propan-2-yl]-1,4-dihydro-1,8-naphthyridine-3-carboxamide]	14	73
CC(COC(F)(F)F)NC(=O)c1cn(-c2ccc(F)cc2F)c2nc(N(C)C)ccc2c1=O (racemic) [Example 231, 1-(2,4-Difluorophenyl)-7-(dimethylamino)-4-oxo-N-[1-(trifluoromethoxy)propan-2-yl]-1,4-dihydro-1,8-naphthyridine-3-carboxamide]	12	120
CC(COC(F)(F)F)NC(=O)c1cn(-c2ccc(F)cc2F)c2nc(N3CCCC3)ccc2c1=O (racemic) [Example 232, 1-(2,4-Difluorophenyl)-4-oxo-7-(pyrrolidin-1-yl)-N-[1-(trifluoromethoxy)propan-2-yl]-1,4-dihydro-1,8-naphthyridine-3-carboxamide]	8	97
